The text below walks through data of patent publication US20200085742A1, “NANOSCALE CARRIERS FOR THE DELIVERY OR CO-DELIVERY OF CHEMOTHERAPEUTICS, NUCLEIC ACIDS AND PHOTOSENSITIZERS” (The University of Chicago, priority 2013, published 2020).

Like-named read-outs stand apart in the source and are kept apart here.

Common to all, as to assay type: cell-based, human
Test [1] has as its system SKOV-3 cells. In words: Cytotoxicity of cisplatin/GMP NCP, MTS assay. A general note: Tetrazolium dyes change colour on reduction, which living cells bring about.
Test [2] relates to SCC61 cells. In words: Cytotoxicity with or without irradiation, MTS assay. The conditions noted are these: read-out: Cisplatin IC50. As to the method: (§1) The cells were seeded on 96-well plates at 2500 cells/well. […] After a 24-h incubation, the cells were irradiated with LED light (670 nm) at 60 mW/cm^2 for 15 min (equals to 54 J/cm^2). The cells without irradiation treatment served as controls. The cells were further incubated for 48 h. The cell viability was detected by (3-(4,5-dimethylthiazol-2-yl)-5-(3-carboxymethoxyphenyl)-2-(4-sulfophenyl)-2H-tetrazolium) (MTS) assay (Promega, Madison, Wis., United States of America) and the IC50 values were calculated accordingly. […] These findings were further supported by the flow cytometry results (Table 11).

The subject of test [3] is HNSCC135 cells. The test is described as above. The settings on record: read-out: Cisplatin IC50. As to the method:
as §1

Test [4] relates to JSQ3 cells. The description is as above. The conditions noted are these: read-out: Cisplatin IC50. As to the method: as §1
The subject of test [5] is SQ20B cells. The description is as above. The conditions noted are these: read-out: Cisplatin IC50. As to the method:
as §1

Test [6] has as its system SKOV-3 cells. In words: Cytotoxicity of UiO formulations, MTS assay. The settings on record: read-out: cisplatin IC50. As to the method: To examine whether the efficient and simultaneous knockdown of three MDR-relevant genes including survivin, Bcl-2, and P-gp could effectively reverse the cisplatin resistance in ovarian cancer cells, the cytotoxicity of free cisplatin, UiO-Cis, and siRNA/UiO-Cis was assessed by 3-(4,5-dimethylthiazol-2-yl)-5-(3-carboxymethoxy-phenyl)-2-(4-sulfophenyl)-2H-tetrazolium (MTS) assay.

Test [7] deals with cisplatin-resistant ovarian cancer cells. Nature of the test: DNA ladder and Annexin V conjugate staining (UiO). As to the method: Annexin V conjugate staining provided further evidence to the apoptosis induced by siRNA/UiO-Cis. siRNA loaded in the NMOFs were efficiently internalized into the cytoplasm after a 24-h incubation to trigger MDR-relevant gene silencing.
Test [8] deals with SQ20B cells. In words: Flow cytometry, apoptosis and necrosis (Annexin V/PI). As to the method:
SQ20B cells were seeded at 1×10^6 cells per well in 6-well plates and further cultured for 24 h. […] Cells incubated with PBS served as control. After a 24 h […] incubation, the cells were irradiated with light emitting diode (LED) light (670 nm) at 60 mW/cm^2 for 15 min (equals to 54 J/cm^2). Following a further incubation of 48 h, the floating and adherent cells were collected and stained with Alexa Fluor 488 Annexin V/dead cell apoptosis kit with Alexa Fluor 488 annexin V and PI (Invitrogen, Carlsbad, Calif., United States of America) according to manufacturer's instructions. The apoptosis and necrosis was examined on a flow cytometer (LSRII Blue, Becton, Dickinson, and Company, Franklin Lakes, N.J., United States of America).
(In general: A flow cytometer gives signals particle by particle.)

Test [9] deals with H460 cells. Nature of the test: Cytotoxicity of cisplatin/GMP NCP, MTS assay.
Test [10] has as its system A2780 cells. In words: In vitro cytotoxicity, MTS assay. The conditions noted are these: after a 72 h incubation, read-out: Cisplatin IC50. As to the method: (§2) ES-2, OVCAR-3, SKOV-3, A2780, and A2780/CDDP cells were seeded at 5000 cells per well in 96-well plates and further cultured for 24 h. The culture media were replaced by 100 μL of fresh culture media containing 10% FBS. Cisplatin solution, NCP-1, NCP-1/siRNA containing pooled siRNAs, NCP-1/siRNA containing single siRNA, and Zn control/siRNA containing pooled siRNAs were added to the cells at different cisplatin or siRNA dose. Following incubation for 24 h, the cell viability was determined by (3-(4,5-dimethylthiazol-2-yl)-5-(3-carboxymethoxyphenyl)-2-(4-sulfophenyl)-2H-tetrazolium) (MTS) assay (Promega Corporation, Madison, Wis., United States of America) according to the manufacturer's instructions. […] The cytotoxicity of Zn control/siRNAs at the siRNA doses corresponding to cisplatin IC50 values was also evaluated.

Test [11] has as its system ES-2 cells. Nature of the test: In vitro cytotoxicity, MTS assay. The conditions noted are these: after a 72 h incubation, read-out: Cisplatin IC50. As to the method: as §2
Test [12] concerns SKOV-3 cells. Nature of the test: In vitro cytotoxicity, MTS assay. The conditions noted are these: after a 72 h incubation, read-out: Cisplatin IC50. As to the method: as §2
In test [13] the test system is OVCAR-3 cells. In words: In vitro cytotoxicity, MTS assay. The conditions noted are these: after a 72 h incubation, read-out: Cisplatin IC50. As to the method: as §2
Test [14] deals with A2780/CDDP cells. In words: In vitro cytotoxicity, MTS assay. The settings on record: after a 72 h incubation, read-out: Cisplatin IC50. As to the method: as §2
Test [15] relates to SQ20B cells. Nature of the test: Time-dependent cellular uptake (ICP-MS, fluorimetry). The settings on record: cisplatin dose 5 μM.
Method: The cellular uptake of NCP-1 particles in SQ20B cells was quantified by ICP-MS. […] The cells were centrifuged at 3,000 rpm for 5 min and the cell pellet was digested with 500 μL of concentrated nitric acid. […] Results were expressed as the amount of cisplatin (ng) per 10^5 cells.
For test [16], the system named is A2780 cells. Nature of the test: Cytotoxicity of cisplatin/GMP NCP, MTS assay. As to the method: (§3) The cytotoxicity of NCP particles carrying cisplatin, GMP, and thiol siRNAs targeting survivin, Bcl-2, and ERCC-1 were evaluated against human ovarian cancer cells A2780, A2780/CDDP, SKOV-3 and human non-small cell lung cancer cell H460 by MTS assay.
Test [17] concerns A2780R cells. In words: Cytotoxicity of cisplatin/GMP NCP, MTS assay. As to the method:
as §3

Test [18] relates to H460 cells. In words: Cytotoxicity of Pten and Pten-NCP.
The test system of test [19] is SQ20B cells. In words: Efflux of cisplatin and pyrolipid. The settings on record: after 4-h uptake. As to the method: The efflux of cisplatin and pyrolipid in SQ20B cells was quantified as follows. SQ20B cells were seeded on 6-well plates at 5×10^5 cells/well and incubated for 24 h. […] After incubating for 4 h, the culture medium was discarded and the cells were washed with PBS three times. […] Results were expressed as the percent of the amount of cisplatin or pyrolipid being effluxed compared to the 4-h cellular uptake amount. In order to understand the cellular uptake dynamics of NCP-1-pyrolipid, the efflux of cisplatin and pyrolipid in different formulations was determined. […] The cisplatin or pyrolipid amounts detected in the culture medium were compared with the 4-h uptake amounts to give the percent efflux (Table 9).

[20] abbreviates: read-out: IC50 as GMP concentration (numbers in parenthesis).

For `N.N.[Cl][Pt][Cl]` [Free cisplatin, cisplatin], the IC50 in [1] (read-out: Cisplatin IC50) was found to be 4.6 ± 0.7 µM; in [2] (irradiation No), 3.46 ± 0.08 µM; in test [2] (irradiation Yes), 3.69 ± 0.28 µM; in test [3] (irradiation No), 3.37 ± 0.73 µM; in [3] (irradiation Yes (670 nm, 54 J/cm^2)), 2.65 ± 0.13 µM; in test [4] (irradiation No) it was 11.3 ± 1.2 µM. Besides, the IC50 in test [4] (irradiation Yes) is 13.3 ± 2.03 µM; in [5] (irradiation No), 3.92 ± 0.15 µM; in test [5] (irradiation Yes), 4.18 ± 0.11 µM; in [6] it was 48.5 ± 4.3 µM; in [9] (read-out: Cisplatin IC50) it was 4.6 ± 0.6 µM; in [10], 4.4 ± 1 µM. The IC50 was found to be 37.6 ± 1.9 µM in test [11]; 59.5 ± 1.2 µM in test [12]; 44.4 ± 3.2 µM in test [13]; 24 ± 3.1 µM in test [14]; 0.764 ± 0.183 µM in [16]; 13.6 ± 3.2 µM in test [17] (read-out: Cisplatin IC50). In [18], this compound registered an IC50 of 4.8 µM. For the same compound, in test [7], the “DNA fragmentation (DNA ladder)” value is “No DNA fragmentation was detectable”. Besides, the Necrosis % in test [8] (w/irradiation) and in [8] (w/o irradiation) was 0.2% each time. For the same compound, the Apoptosis % was 38.1% in test [8] (w/irradiation, cisplatin 5 μM or equivalent pyrolipid) and 37.9% in test [8] (w/o irradiation). Besides, the Cisplatin uptake is on record as 51.7 ± 4.5 ng/10^5 cells in test [15] (1 h), 43.5 ± 1.4 ng/10^5 cells in test [15] (2 h), 38.1 ± 0.8 ng/10^5 cells in [15] (4 h) and 38.5 ± 1.3 ng/10^5 cells in test [15] (24 h). Besides, the Cisplatin efflux in test [19] (1 h) was found to be 12.0 ± 1.5%; in [19] (2 h), 13.5 ± 0.2%; in [19] (4 h), 18.2 ± 5.1%; in test [19] (24 h), 20.0 ± 5.4%; in test [19] (24 h, listed as free cisplatin) it was 20.0%.
With gemcitabine monophosphate [GMP], the IC50 in test [1] (setting [20]) is 2.8 µM; in test [9] (setting [20]), 3.3 µM; in test [17] (setting [20]) it was 0.12 µM.
